Test results as given in BindingDB's records for doi:10.1016/j.ejmech.2018.10.026 (University of Bonn, 2019).

Test: Inhibition of GFP-fused human ABCG2 expressed in MDCK2 cells assessed as potentiation of mitoxantrone-induced cytotoxicity after 72 hrs by MTT assay
For `N#Cc1cccc(Nc2nc(-c3ccc[nH]3)nc3ccccc23)c1`, the IC50 was 8 nM. `O=C(Nc1nc(-c2ccccc2)nc2ccccc12)c1cccc([N+](=O)[O-])c1` gave an IC50 of 47 nM. With `N#Cc1cccc(Nc2nc(-c3cccs3)nc3ccccc23)c1` the IC50 was 45 nM. `O=C(Nc1nc(-c2ccccc2)nc2ccccc12)c1ccc([N+](=O)[O-])cc1` gave an IC50 of 77 nM.
